Measured values published in patent publication US8916524B2, “Composition for improving brain function and method for improving brain function” (Calpis Co., Ltd., priority 2010, dated 2014).

System: scopolamine-induced amnesia
Assay: Y-shaped maze test of spontaneous alternation behavior, prophylactic activity against scopolamine-induced amnesia
Type: in vivo, mice (ddY strain)
Details: male ddY mice; 5000 nmol/kg weight once orally 60 minutes before Y-shaped maze test; scopolamine 1 mg/kg weight subcutaneously 30 minutes before test
Experimental: Male mice (n=15) of the ddY strain (approximately 7-week old) were used, and they took food and water ad lib. Test substances used were 500 nmol/kg weight (230 ug/kg weight) and 5000 nmol/kg weight (2300 ug/kg weight) of Val-Pro-Pro-Phe (SEQ ID NO: 2). The test substances were administered to the mice once orally 60 minutes before the execution of a Y-shaped maze test for evaluation of spontaneous alternation behavior. Further, 30 minutes before the execution of the Y-shaped maze test, 1 mg/kg weight of scopolamine was subcutaneously administered on the backs of the mice in order to induce brain dysfunction (dysmnesia and/or cognitive impairment) in the mice. In the Y-shaped maze test, a Y-shaped maze was used as an experimental device, in which the length of each arm was 40 cm, the height of the wall was 12 cm, the width of the floor was 3 cm, and the width of the upper part was 10 cm, and three arms were connected to each other at an angle of 120 degrees. […] The sequence of the arms each of the mice entered was recorded. The number of entries by each of the mice for each of the arms during the measurement time was counted to be the total number of entries. […] The percentage of spontaneous alternation behavior was calculated by dividing the number of spontaneous alternation behavior by a number obtained by subtracting 2 from the total number of entries, and multiplying a resultant number by 100. […] The measured values were expressed in the form of mean±standard error for each group. A significant difference between the control group and the scopolamine control group was calculated using Student's t-test. Further, a significant difference between the scopolamine control group and the VPPF-administered group was calculated using Dunnett's multiple comparison test after one-way analysis of variance.
Male mice (n=15) of the ddY strain (approximately 7-week old) were used, and they took food and water ad lib. […] The arms each of the mice entered were sequentially recorded. […]

Asn-Ile-Pro-Pro-Leu (NIPPL; Synthetic functional peptide)
prophylactic activity against amnesia (percentage of spontaneous alternation behavior): had a prophylactic activity against amnesia

Ile-Pro-Pro-Leu (IPPL; Synthetic functional peptide)
prophylactic activity against amnesia (percentage of spontaneous alternation behavior): had a prophylactic activity against amnesia

Val-Pro-Pro-Phe (VPPF; Synthetic functional peptide)
prophylactic activity against amnesia (percentage of spontaneous alternation behavior): had a prophylactic activity against amnesia
